Where a SMILES comes first, the peptide text is derived from it. Bridges are numbered along the chain shown (N, C = ends).
What was measured:
CaV3 = conditions: cited from earlier work
Description: (§1) It is well documented that the three CaV3 subtypes participate differentially in a variety of physiological and pathological conditions. Selective pharmacological inhibition is therefore important for dissecting the pathophysiological functions of CaV3 channel subtypes and for the development of therapeutically useful subtype-selective inhibitors.

patients = conditions: used clinically as anti-epileptic drugs; cited from earlier work
Description: as §1

CaV3.1 = biological target: T1, CaV3.1 (Homo sapiens, UniProt O43497); assay: Whole-cell voltage-clamp of CaV3.1 expressed in HEK-293 cells; format: cell-based
T1 construct: expressed in transfected cells; host or cells: HEK-293
Procedure: (§2) Human embryonic kidney (HEK) 293 cells were grown in Dulbecco’s modified Eagle’s medium (DMEM) containing 5% fetal bovine serum and penicillin/streptomycin at 37 °C in a 5% CO2 incubator. Cells were transiently transfected with 3 μg plasmid DNA using the calcium-phosphate method. Plasmids of Cav3.1, Cav3.2 or Cav3.3 were separately transfected into three individual plates of HEK-293 cells. After transfection, cells were incubated at 37 °C for 48 h prior to whole-cell voltage-clamp recordings.
(§3) Patch pipettes with a tip resistance of 2.8~3.5 MΩ were pulled from borosilicate glass capillary tubes (Warner Instruments, Holliston, MA, USA) using a P-97 Flaming-Brown type micropipette puller (Sutter Instrument, Novato, CA, USA). Ionic currents were recorded using an Axon Multiclamp 700B microelectrode amplifier (Molecular Devices, San Jose, CA, USA). The sampling frequency for acquisition was 50 kHz and data were low-pass filtered at 2 kHz. Voltage and current commands and digitisation of membrane voltages and currents were controlled using a Digidata 1440A interfaced with Clampex 10.4 (Molecular Devices, San Jose, CA, USA). Data were analysed using pCLAMP10.4 software (Molecular Devices, San Jose, CA, USA).
(§4) To measure CaV3 currents, cells were incubated with the following bath solution (in mM): 145 TEA-Cl, 5 CaCl2, 3 CsCl, 1 MgCl2, 5 glucose, and 10 HEPES, adjusted to pH 7.4 with TEA-OH, osmolarity ~300 mOsm. The pipette solution was as follows (in mM): 130 CsCl, 20 HEPES, 10 EGTA, 5 MgCl2, 3 Mg-ATP, and 0.3 Tris-GTP, adjusted to pH 7.3 with CsOH, osmolarity ~310 mOsm. All recordings were performed at room temperature (21–24 °C). For Cav3.1- or Cav3.2-transfected cells, their membrane potentials were initially held at −90 mV for 20 ms and then depolarized to −30 mV for 150 ms. […] The peak values of Cav3 currents were recorded before and after addition of venom fractions or synthetic peptide. […] The inhibition was calculated by dividing the toxin-reduced peak amplitudes by the peak amplitudes before additions of the toxin.

CaV3.2 = biological target: T2, CaV3.2 (Homo sapiens, UniProt O95180); assay: Whole-cell voltage-clamp of CaV3.2 expressed in HEK-293 cells; format: cell-based
T2 construct: expressed in transfected cells; host or cells: HEK-293
Procedure: as §2, §3, §4

CaV3.3 = biological target: T3, CaV3.3 (Homo sapiens, UniProt Q9P0X4); assay: Whole-cell voltage-clamp of CaV3.3 expressed in HEK-293 cells; format: cell-based
T3 construct: expressed in transfected cells; host or cells: HEK-293
Procedure: as §2, §3, §4

[1] = Solubility limit in electrophysiology; format: physicochemical; conditions: synthetic ω-Avsp1a; working concentration could not be increased above 25 μM
[2] = synthetic ω-Avsp1a, 10, 5, 1, and 0.1 μM, Hill equation fit, HEK-293

T1 sequence (O43497 whole entry): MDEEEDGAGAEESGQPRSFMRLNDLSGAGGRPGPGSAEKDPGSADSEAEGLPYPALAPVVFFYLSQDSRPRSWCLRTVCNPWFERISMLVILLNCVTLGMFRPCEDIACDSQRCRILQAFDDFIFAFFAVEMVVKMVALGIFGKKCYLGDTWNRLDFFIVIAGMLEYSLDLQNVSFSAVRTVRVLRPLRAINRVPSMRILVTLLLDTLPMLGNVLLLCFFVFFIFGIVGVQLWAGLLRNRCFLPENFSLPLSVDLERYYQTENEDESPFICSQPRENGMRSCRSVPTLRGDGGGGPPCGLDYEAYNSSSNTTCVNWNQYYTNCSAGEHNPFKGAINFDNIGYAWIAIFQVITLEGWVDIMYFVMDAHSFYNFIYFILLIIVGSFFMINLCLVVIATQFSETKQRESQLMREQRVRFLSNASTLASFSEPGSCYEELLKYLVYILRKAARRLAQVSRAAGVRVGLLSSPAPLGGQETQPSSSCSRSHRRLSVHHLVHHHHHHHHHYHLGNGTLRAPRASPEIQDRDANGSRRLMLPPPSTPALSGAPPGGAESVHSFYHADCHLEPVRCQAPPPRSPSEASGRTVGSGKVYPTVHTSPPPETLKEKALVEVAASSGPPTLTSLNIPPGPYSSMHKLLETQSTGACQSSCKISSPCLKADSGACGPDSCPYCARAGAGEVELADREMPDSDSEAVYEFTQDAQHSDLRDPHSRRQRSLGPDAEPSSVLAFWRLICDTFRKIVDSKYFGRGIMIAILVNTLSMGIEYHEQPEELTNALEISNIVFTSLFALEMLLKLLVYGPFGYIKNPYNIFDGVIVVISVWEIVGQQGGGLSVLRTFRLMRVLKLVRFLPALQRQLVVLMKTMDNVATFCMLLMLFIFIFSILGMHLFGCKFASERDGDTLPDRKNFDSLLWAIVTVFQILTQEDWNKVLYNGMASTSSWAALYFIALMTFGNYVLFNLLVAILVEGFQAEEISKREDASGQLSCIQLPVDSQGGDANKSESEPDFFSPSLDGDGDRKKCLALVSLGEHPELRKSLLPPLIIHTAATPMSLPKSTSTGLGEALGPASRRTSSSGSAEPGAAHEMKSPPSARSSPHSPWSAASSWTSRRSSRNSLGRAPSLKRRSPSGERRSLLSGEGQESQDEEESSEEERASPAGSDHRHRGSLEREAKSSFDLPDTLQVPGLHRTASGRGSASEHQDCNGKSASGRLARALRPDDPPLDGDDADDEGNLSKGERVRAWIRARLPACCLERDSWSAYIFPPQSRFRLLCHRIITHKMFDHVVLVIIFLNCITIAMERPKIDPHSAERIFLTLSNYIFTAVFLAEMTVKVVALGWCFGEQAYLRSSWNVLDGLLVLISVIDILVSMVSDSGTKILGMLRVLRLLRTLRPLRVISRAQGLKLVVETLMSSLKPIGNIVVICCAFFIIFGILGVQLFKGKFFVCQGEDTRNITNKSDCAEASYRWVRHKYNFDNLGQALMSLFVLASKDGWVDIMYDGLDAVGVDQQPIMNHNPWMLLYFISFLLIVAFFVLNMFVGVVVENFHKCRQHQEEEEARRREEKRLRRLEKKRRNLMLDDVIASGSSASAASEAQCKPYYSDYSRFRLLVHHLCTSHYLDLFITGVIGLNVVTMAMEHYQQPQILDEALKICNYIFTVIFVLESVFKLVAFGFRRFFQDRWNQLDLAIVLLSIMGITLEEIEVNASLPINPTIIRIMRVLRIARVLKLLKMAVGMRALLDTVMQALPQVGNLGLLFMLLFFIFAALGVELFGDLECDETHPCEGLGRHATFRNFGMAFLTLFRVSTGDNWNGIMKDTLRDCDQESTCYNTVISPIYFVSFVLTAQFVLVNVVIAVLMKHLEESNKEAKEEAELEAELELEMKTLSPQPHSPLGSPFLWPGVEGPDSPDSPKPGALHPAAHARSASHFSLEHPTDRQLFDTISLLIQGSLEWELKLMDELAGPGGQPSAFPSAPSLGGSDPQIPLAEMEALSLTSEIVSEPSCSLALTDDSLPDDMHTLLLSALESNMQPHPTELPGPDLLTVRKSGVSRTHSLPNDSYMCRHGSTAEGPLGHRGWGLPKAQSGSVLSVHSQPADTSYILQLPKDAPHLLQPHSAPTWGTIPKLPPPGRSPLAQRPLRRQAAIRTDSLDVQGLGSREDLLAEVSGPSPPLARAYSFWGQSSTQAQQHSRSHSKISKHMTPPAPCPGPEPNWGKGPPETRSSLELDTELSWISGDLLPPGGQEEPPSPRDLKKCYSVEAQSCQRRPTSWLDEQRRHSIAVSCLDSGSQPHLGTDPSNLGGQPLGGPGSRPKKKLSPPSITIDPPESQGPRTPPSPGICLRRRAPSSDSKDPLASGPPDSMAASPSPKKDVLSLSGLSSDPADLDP
T2 sequence (O95180 whole entry): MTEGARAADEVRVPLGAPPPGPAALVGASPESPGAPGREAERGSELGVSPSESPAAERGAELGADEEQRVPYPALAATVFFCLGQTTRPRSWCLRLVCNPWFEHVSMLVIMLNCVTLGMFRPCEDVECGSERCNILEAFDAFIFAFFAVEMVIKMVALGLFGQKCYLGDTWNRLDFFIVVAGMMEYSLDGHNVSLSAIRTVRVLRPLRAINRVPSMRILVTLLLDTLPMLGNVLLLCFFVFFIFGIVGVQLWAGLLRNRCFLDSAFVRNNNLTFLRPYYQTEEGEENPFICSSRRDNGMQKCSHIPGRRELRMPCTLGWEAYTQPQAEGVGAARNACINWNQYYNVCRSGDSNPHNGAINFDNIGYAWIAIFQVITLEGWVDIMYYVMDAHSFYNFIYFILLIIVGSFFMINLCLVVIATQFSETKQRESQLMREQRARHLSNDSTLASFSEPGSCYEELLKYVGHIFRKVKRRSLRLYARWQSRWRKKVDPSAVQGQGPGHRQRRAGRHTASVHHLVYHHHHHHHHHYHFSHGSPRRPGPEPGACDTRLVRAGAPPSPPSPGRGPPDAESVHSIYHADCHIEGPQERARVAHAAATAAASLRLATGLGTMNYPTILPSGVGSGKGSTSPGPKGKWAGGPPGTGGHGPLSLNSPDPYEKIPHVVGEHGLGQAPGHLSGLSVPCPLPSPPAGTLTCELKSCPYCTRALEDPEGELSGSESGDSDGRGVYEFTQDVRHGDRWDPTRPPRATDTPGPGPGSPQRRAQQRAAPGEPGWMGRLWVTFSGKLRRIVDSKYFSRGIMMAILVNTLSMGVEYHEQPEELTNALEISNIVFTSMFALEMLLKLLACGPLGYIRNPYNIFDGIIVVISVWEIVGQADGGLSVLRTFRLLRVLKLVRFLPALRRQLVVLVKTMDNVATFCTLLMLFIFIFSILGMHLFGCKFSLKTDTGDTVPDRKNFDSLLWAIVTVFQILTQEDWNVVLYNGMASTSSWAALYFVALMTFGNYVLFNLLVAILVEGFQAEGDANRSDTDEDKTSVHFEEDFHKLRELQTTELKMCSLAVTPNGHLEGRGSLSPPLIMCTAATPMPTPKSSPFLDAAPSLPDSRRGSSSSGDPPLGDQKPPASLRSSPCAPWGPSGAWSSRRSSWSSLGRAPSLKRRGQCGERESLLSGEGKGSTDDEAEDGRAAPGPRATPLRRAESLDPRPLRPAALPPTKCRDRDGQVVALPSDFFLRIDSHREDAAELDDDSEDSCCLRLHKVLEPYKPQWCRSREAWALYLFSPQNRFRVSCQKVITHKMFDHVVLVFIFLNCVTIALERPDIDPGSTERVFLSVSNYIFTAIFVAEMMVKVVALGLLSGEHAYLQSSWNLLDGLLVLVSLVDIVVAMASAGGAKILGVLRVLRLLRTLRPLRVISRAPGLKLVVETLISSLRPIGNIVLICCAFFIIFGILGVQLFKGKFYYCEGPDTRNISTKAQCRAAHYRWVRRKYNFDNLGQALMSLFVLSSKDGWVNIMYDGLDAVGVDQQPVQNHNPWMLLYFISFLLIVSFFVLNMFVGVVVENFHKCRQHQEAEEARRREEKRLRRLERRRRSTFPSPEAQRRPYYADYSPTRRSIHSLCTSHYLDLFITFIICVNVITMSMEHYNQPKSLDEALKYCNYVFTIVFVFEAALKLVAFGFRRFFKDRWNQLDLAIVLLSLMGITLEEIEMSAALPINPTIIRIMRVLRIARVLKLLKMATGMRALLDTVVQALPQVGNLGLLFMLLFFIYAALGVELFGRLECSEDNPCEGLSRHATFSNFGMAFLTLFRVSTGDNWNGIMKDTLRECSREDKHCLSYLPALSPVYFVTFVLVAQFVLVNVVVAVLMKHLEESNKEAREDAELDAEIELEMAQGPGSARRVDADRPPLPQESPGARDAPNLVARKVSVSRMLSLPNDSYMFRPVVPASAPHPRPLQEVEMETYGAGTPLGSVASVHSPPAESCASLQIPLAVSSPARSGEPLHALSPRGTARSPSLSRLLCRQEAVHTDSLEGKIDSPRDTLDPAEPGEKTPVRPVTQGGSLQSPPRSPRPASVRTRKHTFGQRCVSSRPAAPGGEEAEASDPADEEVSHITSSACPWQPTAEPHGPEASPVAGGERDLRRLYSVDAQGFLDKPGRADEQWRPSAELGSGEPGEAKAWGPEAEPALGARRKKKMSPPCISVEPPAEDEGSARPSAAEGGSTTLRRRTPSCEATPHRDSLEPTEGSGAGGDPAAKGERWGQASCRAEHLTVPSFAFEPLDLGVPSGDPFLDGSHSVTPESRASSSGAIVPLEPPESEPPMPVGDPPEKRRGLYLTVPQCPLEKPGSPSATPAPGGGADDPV

For CCC1(C)CC(=O)NC1=O (centres unmarked) [ethosuximide], the CaV3 subtype specificity (CaV3) is listed as “not subtype-specific” and the “clinical effectiveness as anti-epileptic” value (patients) is listed as “not effective in all patients”.
For NS(=O)(=O)Cc1noc2ccccc12 [zonisamide], the CaV3 subtype specificity (CaV3) is listed as “not subtype-specific” and the “clinical effectiveness as anti-epileptic” value (patients) is listed as “not effective in all patients”.
Work on CC(C)C[C@@H]1NC(=O)[C@H](Cc2ccccc2)NC(=O)[C@H](CCCCN)NC(=O)[C@H](Cc2c[nH]cn2)NC(=O)[C@@H](NC(=O)[C@H](CC(=O)O)NC(=O)CN)CSSC[C@@H]2NC(=O)[C@@H]3CSSC[C@@H](C(=O)N[C@H](C(=O)N[C@@H](Cc4c[nH]c5ccccc45)C(=O)N[C@@H](CC(=O)O)C(=O)N[C@@H](Cc4c[nH]c5ccccc45)C(=O)N[C@H](C(=O)N[C@H](C(N)=O)C(C)C)[C@@H](C)O)C(C)C)NC(=O)[C@H](Cc4c[nH]c5ccccc45)NC(=O)CNC(=O)[C@H](Cc4c[nH]cn4)NC(=O)[C@H](CCCCN)NC(=O)[C@H](CCCNC(=N)N)NC(=O)[C@H](CO)NC(=O)[C@H](CSSC[C@H](NC(=O)[C@H](Cc4c[nH]c5ccccc45)NC(=O)CNC1=O)C(=O)N[C@@H](CCCNC(=N)N)C(=O)NCC(=O)N[C@@H](CCC(=O)O)C(=O)N1CCC[C@H]1C(=O)N[C@@H](CC(=O)O)C(=O)N1CCC[C@H]1C(=O)N3)NC(=O)[C@H](CO)NC(=O)[C@H](CC(C)C)NC(=O)[C@H](Cc1c[nH]cn1)NC(=O)[C@H](CCC(=O)O)NC2=O [ω-Avsp1a, ω-theraphotoxin-Avsp1a] (H-GDCHKFLGWCRGEPDPCCEHLSCSRKHGWCVWDWTV-NH2; disulfide 3-18, 10-23, 17-30) yielded an inhibition at 4.1 µM (CaV3.1; HEK293, pH 7.4, native ω-Avsp1a, 4.1 μM, HEK-293, whole-cell, -90 to -30 mV, room temperature (21–24 °C), pH 7.4, 5 mM CaCl2, n = 5, read-out: current inhibition) of 90%, an inhibition at 10 µM (CaV3.1; HEK293, synthetic ω-Avsp1a, 10 μM, HEK-293, whole-cell, -90 to -30 mV, n = 9, read-out: current inhibition) of 90% and an IC50 (CaV3.1; [2]) of 5.06 ± 0.16 µM. It also gave an IC50 (CaV3.2) greater than 25 µM, an inhibition at 4.1 µM (CaV3.2; HEK293, pH 7.4, native ω-Avsp1a, 4.1 μM, HEK-293, whole-cell, -90 to -30 mV, room temperature (21–24 °C), pH 7.4, 5 mM CaCl2, n = 5, p < 0.001 vs. Cav3.1 and Cav3.3, read-out: current inhibition) of 25% and an inhibition at 25 µM (CaV3.2; HEK293, synthetic ω-Avsp1a, 25 μM (section 3.6), read-out: current inhibition) of 31%. For the same compound, the inhibition at 4.1 µM (CaV3.3; HEK293, pH 7.4, native ω-Avsp1a, 4.1 μM, HEK-293, whole-cell, -90 to -20 mV, room temperature (21–24 °C), pH 7.4, 5 mM CaCl2, n = 3, read-out: current inhibition) was 90%, the inhibition at 10 µM (CaV3.3; HEK293, synthetic ω-Avsp1a, 10 μM, HEK-293, whole-cell, -90 to -20 mV, n = 9, read-out: current inhibition) was 90% and the IC50 (CaV3.3; [2]) was 4.32 ± 1.21 µM. The solubility [1] was “limited solubility”.

— paper PMC9138389, “The Tarantula Toxin ω-Avsp1a Specifically Inhibits Human CaV3.1 and CaV3.3 via the Extracellular S3-S4 Loop of the Domain 1 Voltage-Sensor” (Biomedicines, 2022)
